Data on three substances can be found in publication PMC2963311 (Nature neuroscience, 2008).

Where no end group is shown, it is not given here.

This assay relates to EGL-6. The assay can be described thus: GIRK current activation in EGL-6-expressing oocytes. To be noted: single synthetic peptide; X. laevis oocytes coexpressing EGL-6 and GIRKs; whole-cell currents, two-electrode voltage clamp, −80 mV, high-K+ medium (96 mM KCl); Fig. 4d. The format is cell-based, C. elegans.
Consider KSAFVRF-NH2, for which the “agonist activity when applied individually” value is “could function as agonists when applied individually”. The entry for KSQYIRF-NH2 is “could function as agonists when applied individually”; for QPKARSGYIRF-NH2 it is “could function as agonists when applied individually”.
